Test [1] concerns GABA receptor. The conditions noted are these: brain membranes; cited from earlier work.
The target of test [2] is GABAa receptor. The test is described as follows: [3H]-RO15-1788 (Flumazenil) binding assay for GABAa receptor activity, rat cortical tissue. The settings on record: 0.5 nM 3H-RO15-1788; rat cortical tissue homogenate; 30 min at 4° C.; nonspecific binding with 1.0 mM diazepam. As to the method: The pharmaceutical utility of compounds of this invention are indicated by the following assay for GABAa receptor activity.
Assays are carried out as described in Thomas and Tallman (J. Bio. Chem. 156: 9838-9842, J. Neurosci. 3: 433-440, 1983). Rat cortical tissue is dissected and homogenized in 25 volumes (w/v) of 0.05M Tris HCl buffer (pH 7.4 at 4° C.). The tissue homogenate is centrifuged in the cold (4°) at 20,000×g for 20'. The supernatant is decanted and the pellet is rehomogenized in the same volume of buffer and again centrifuged at 20,000×g. The supernatant is decanted and the pellet is frozen at -20° C. overnight. The pellet is then thawed and rehomogenized in 25 volume (original wt/vol) of buffer and the procedure is carried out twice. The pellet is finally resuspended in 50 volumes (w/vol of 0.05M Tris HCl buffer (pH 7.4 at […]).
Incubations contain […] of radioligand 0.5 nM (^3 H-RO15-1788 [^3 H-Flumazenil] specific activity 80 Ci/mmol), drug or blocker and buffer to a total volume of […]. Incubations are carried for 30 min at 4° C. then are rapidly filtered through GFB filters to separate free and bound ligand. Filters are washed twice with fresh 0.05M Tris HCl buffer (pH 7.4 at 4° C.) and counted in a liquid scintillation counter. […] diazepam is added to some tubes to determine nonspecific binding. Data are collected in triplicate determinations, averaged and % inhibition of total specific binding is calculated. Total Specific Binding=Total-Nonspecific. In some cases, the amounts of unlabeled drugs is varied and total displacement curves of binding are carried out. Data are converted to a form for the calculation of IC50 and Hill Coefficient (nH).

SMILES strings stand for the structures.

With `CN1CCc2cc3c(cc2[C@H]1[C@@H]1OC(=O)c2c1ccc1c2OCO1)OCO3` [(+) bicuculline], in test [1], the “blockade of enhancement of benzodiazepine binding by GABA agonists” value was “blocked”.

Take `CN1CCc2cc3c(cc2[C@@H]1[C@H]1OC(=O)c2c1ccc1c2OCO1)OCO3` [(-) bicuculline]: the “blockade of enhancement of benzodiazepine binding by GABA agonists” value in test [1] was “much less active”.

For the molecule `O=c1[nH]c2c(n1-c1nc3ccc(F)c(F)c3o1)CCCCC2` [Compound 1], the Ki – broadly, a dissociation constant, usually derived from enzyme kinetics or from competition with a known ligand – in test [2] was 3 nM. This lies in the single-digit nanomolar range.

In turn, `O=c1[nH]c2c(n1-c1nc3ccc(F)cc3o1)CCCCC2` [Compound 2] registered a Ki in test [2] of 4.6 nM.

`O=c1[nH]c2cc(F)ccc2n1-c1nc2cccc(F)c2o1` [Compound 3, 3-(2-(7-fluorobenzoxazyl))-6-fluorobenzimidazol-2-(1H)-one] returned a Ki in test [2] of 14 nM. Compared with the last molecule, the Ki is about 3-fold higher.

`O=c1[nH]c2cc(F)ccc2n1-c1nc2ccc(F)cc2o1` [Compound 4, 3-(2-(6-fluorobenzoxazyl))-6-fluorobenzimidazol-2-(1H)-one] registered a Ki in test [2] of 5 nM.

`O=c1[nH]c2c(n1-c1nc3ccc(F)c(F)c3o1)CCCC2` [Compound 5] showed a Ki in test [2] of 21 nM. This Ki is about 4.2-fold higher than that of the molecule before.

In test [2], `COc1ccc2oc(-n3c4c([nH]c3=O)CCCC4)nc2c1` [Compound 6] showed an inhibition constant (Ki) of 81 nM.

Source of the values: patent publication US5637725A, “Substituted aryl and cycloalkyl imidazolones; a new class of GABA brain receptor ligands” (Neurogen Corporation, priority 1995, dated 1997).
